In US9120746B2, “Crystalline form of a 3-phenoxymethylpyrrolidine compound” (Theravance Biopharma R&D IP, LLC, priority 2010, dated 2015):
Counter-ions that a name gives are not always drawn. Like-named read-outs stand apart in the source and are kept apart here.

What was measured:
[1] = target: T1, hSERT (Homo sapiens, UniProt P31645); experiment: hSERT membrane radioligand binding assay (3H-citalopram); settings: 1.0 nM 3H-citalopram, HEK-293 hSERT membranes; read-out: SERT pKi (converted)
T1 construct: expressed in transfected cells; host or cells: HEK-293 derived cell line, stably transfected
Procedure: (§1) Membrane radioligand binding assays were used to measure inhibition of labeled ligand (^3H-citalopram or ^3H-nisoxetine or ^3H-WIN35428) binding to membranes prepared from cells expressing the respective human recombinant transporter (hSERT or hNET or hDAT) in order to determine the pKi values of test compounds at the transporters.
(§2) Recombinant human embryonic kidney (HEK-293) derived cell lines stably transfected with hSERT or hNET, respectively, were grown in Dulbecco's Modified Eagle's Medium (DMEM) medium supplemented with 10% dialyzed FBS (for hSERT) or FBS (for hNET), 100 μg/ml penicillin, 100 μg/ml streptomycin, 2 mM L-glutamine and 250 μg/ml of the aminoglycoside antibiotic G418, in a 5% CO2 humidified incubator at 37° C. When cultures reached 80% confluence, the cells were washed thoroughly in PBS (without Ca^2+ and Mg^2+) and lifted with 5 mM EDTA in PBS. […] Protein concentration of the membrane suspension was determined using a Bio-Rad Bradford Protein Assay kit. […]
(§3) Stock solutions (10 mM in DMSO) of test compound were prepared and serial dilutions made using Dilution Buffer (50 mM Tris-HCl, 120 mM NaCl, 5 mM KCl, pH 7.4, 0.1% BSA, 400 μM ascorbic acid). Non-specific radioligand binding was determined in the presence of 1 μM duloxetine, 1 μM desipramine or 10 μM GBR12909 (each in Dilution Buffer) for the hSERT, hNET or hDAT assays, respectively. […]

[2] = target: T1, hSERT; experiment: hSERT neurotransmitter uptake assay (3H-5-HT); type: cell-based; settings: 3H-5-HT 20 nM, HEK-293 hSERT cells; read-out: serotonin reuptake inhibition pIC50 (converted)
Procedure: (§4) Neurotransmitter uptake assays were used to measure inhibition of ^3H-serotonin (^3H-5-HT), ^3H-norepinephrine (^3H-NE), and ^3H-dopamine (^3H-DA) uptake into cells expressing the respective transporter (hSERT, hNET or hDAT) in order to determine the pIC50 values of test compounds at the transporters.
(§5) HEK-293 derived cell lines stably-transfected with hSERT, hNET, or hDAT, respectively, were grown in DMEM medium supplemented with 10% dialyzed FBS (for hSERT) or FBS (for hNET and hDAT), 100 μg/ml penicillin, 100 μg/ml streptomycin, 2 mM L-glutamine and 250 μg/ml of the aminoglycoside antibiotic G418 (for hSERT and hNET) or 800 ug/ml (for hDAT), in a 5% CO2 humidified incubator at 37° C. When cultures reached 80% confluence, the cells were washed thoroughly in PBS (without Ca^2+ and Mg^2+) and lifted with 5 mM EDTA in PBS. […]
(§6) Neurotransmitter uptake assays were performed in a 96-well assay plate in a total volume of 400 μl assay buffer (Krebs-Ringer bicarbonate buffer containing HEPES (10 mM), CaCl2 (2.2 mM), ascorbic acid (200 μM) and pargyline (200 μM), pH 7.4) with 1.5×10^4 and 2.5×10^4 cells, for SERT, NET, and DAT, respectively. […] Non-specific neurotransmitter uptake was determined in the presence of 2.5 μM duloxetine, 2.5 μM desipramine, or 10 uM GBR-12909 (each in Dilution Buffer) for the hSERT, hNET, or hDAT assays, respectively. […]

[3] = target: T2, hNET (Homo sapiens, UniProt P23975); experiment: hNET membrane radioligand binding assay (3H-nisoxetine); settings: 1.0 nM 3H-nisoxetine, HEK-293 hNET membranes; read-out: NET pKi (converted)
T2 construct: expressed in transfected cells; host or cells: HEK-293 derived cell line, stably transfected
Procedure: as §1, §2, §3

[4] = target: T2, hNET; experiment: hNET neurotransmitter uptake assay (3H-NE); type: cell-based; settings: 3H-NE 50 nM, HEK-293 hNET cells; read-out: norepinephrine reuptake inhibition pIC50 (converted)
Procedure: as §4, §5, §6

[5] = Thermal analysis (DSC, TGA); type: physicochemical
Procedure: Differential scanning calorimetry (DSC) was performed using a TA Instruments
Model Q-100 module with a Thermal Analyst controller. Data were collected and analyzed using TA Instruments Thermal Solutions software. A 1.22 mg sample of the crystalline hydrochloride salt of the invention was accurately weighed into a covered aluminum pan. After a 5 minute isothermal equilibration period at 22° C., the sample was heated using a linear heating ramp of 10° C./min from 22° C. to 250° C.

[6] = Deliquescence on exposure to atmospheric moisture; type: physicochemical; settings: exposed to atmospheric moisture
[7] = Aqueous solubility; type: physicochemical; settings: read-out: SOLUBILITY CONCENTRATION
Description: The crystalline hydrochloride salt of the invention has very good aqueous solubility in a wide pH range: […]

[8] = Dynamic moisture sorption (DMS) assessment; type: physicochemical; settings: exposed to up to 85% relative humidity, 25° C.
Procedure: A dynamic moisture sorption (DMS) assessment (also known as a moisture sorption-desorption profile) was performed for the crystalline hydrochloride salt of the invention using a VTI atmospheric microbalance, SGA-100 system (VTI Corp., Hialeah, Fla. 33016). A sample size of approximately 2.73 mg was used and the humidity was set at the ambient value at the start of the analysis. The DMS analysis consisted of a scan rate of 5% relative humidity/step over the full humidity range of 2% relative humidity to 90% relative humidity. The DMS run was performed isothermally at 25° C.

[9] = Solution stability (HPLC peak area); type: physicochemical; settings: for Change in HPLC Peak Area: 10 μm/mL, 3 days at 40° C.

T1 sequence (P31645 whole entry): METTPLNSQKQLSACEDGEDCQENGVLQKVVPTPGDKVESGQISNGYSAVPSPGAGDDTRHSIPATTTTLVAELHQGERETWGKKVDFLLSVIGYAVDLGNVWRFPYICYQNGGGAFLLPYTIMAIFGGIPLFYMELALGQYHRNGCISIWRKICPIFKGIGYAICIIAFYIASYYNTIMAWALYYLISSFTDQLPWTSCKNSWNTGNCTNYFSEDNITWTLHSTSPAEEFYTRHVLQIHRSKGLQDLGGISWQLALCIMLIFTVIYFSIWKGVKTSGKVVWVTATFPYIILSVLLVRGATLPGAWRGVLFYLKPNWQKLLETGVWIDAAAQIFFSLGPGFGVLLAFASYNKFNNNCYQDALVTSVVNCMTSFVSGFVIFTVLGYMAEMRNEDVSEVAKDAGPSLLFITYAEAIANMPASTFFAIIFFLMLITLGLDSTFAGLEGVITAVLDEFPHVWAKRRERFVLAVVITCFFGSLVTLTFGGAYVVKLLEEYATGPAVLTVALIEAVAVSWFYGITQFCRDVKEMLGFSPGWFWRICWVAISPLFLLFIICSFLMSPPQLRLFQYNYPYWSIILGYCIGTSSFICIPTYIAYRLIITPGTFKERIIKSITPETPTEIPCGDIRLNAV
T2 sequence (P23975 whole entry): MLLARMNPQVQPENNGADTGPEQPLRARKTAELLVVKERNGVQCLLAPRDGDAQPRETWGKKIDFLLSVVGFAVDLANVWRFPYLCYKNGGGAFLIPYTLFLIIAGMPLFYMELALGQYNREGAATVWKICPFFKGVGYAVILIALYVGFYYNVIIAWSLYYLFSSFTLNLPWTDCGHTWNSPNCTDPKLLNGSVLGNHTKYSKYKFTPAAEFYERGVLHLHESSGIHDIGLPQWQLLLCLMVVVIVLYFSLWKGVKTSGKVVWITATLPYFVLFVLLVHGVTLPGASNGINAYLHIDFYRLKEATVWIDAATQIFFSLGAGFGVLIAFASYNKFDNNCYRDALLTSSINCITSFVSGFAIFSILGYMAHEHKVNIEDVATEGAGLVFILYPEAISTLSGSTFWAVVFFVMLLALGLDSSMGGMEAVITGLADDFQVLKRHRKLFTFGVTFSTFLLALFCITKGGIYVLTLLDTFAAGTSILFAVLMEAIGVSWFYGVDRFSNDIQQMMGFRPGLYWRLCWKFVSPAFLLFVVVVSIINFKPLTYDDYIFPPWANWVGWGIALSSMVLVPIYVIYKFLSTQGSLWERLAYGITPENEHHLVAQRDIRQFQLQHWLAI

In the case of `CC(C)[C@H](Oc1ccc(Cl)cc1)[C@H]1CCNC1` [Example 1 (TFA salt), (S)-3-[(S)-1-(4-Chlorophenoxy)-2-methylpropyl]pyrrolidine], the Ki [1] is reported as no more than 10 nM, the IC50 [2] is reported as no more than 10 nM and the Ki [3] is reported as no more than 10 nM. The IC50 [4] was no more than 10 nM.
For `CC(C)[C@H](Oc1ccc(Cl)cc1)[C@H]1CCNC1` [Example 1, Crystalline Hydrochloride Salt of (S)-3-[(S)-1-(4-Chlorophenoxy)-2-methylpropyl]pyrrolidine], the “thermal stability (DSC)” value ([5]; heating 10° C./min from 22° C. to 250° C.) was “no significant thermal decomposition below about 200 °C”, the “weight loss (TGA)” value ([5]; room temperature to 200° C.) was “did not lose any significant amount of weight” and the deliquescence [6] was “not to be deliquescent”. The solubility ([7]; aqueous HCl, simulated gastric fluid, HCl pH 2.0) was greater than 10000 µg/mL, the solubility ([7]; phosphate buffer, aqueous buffer, 50 mM phosphate-buffered pH 7.4) was greater than 10000 µg/mL and the solubility ([7]; un-buffered water) was greater than 10000 µg/mL. The weight gain [8] was “less than 1.0%”, the “Change in HPLC Peak Area” value ([9]; 50 mM citric acid pH 2.2) was 100.5% and the “Change in HPLC Peak Area” value ([9]; 50 mM phosphate-buffered pH 7.4) was 100.0%. The “stability at room temperature” value ([9]; room temperature, 30 days, concentrations of 1 mg/mL and 10 mg/mL) was “no degradation”.
